For 19 compounds, IC50 results are on record in patent US20130310379A1, “MODULATORS OF METHYL MODIFYING ENZYMES, COMPOSITIONS AND USES THEREOF” (CONSTELLATION PHARMACEUTICALS, priority 2010, published 2013).

The target in test [1] is EZH2 (Homo sapiens, UniProt Q15910). In words: EZH2 assay: rPRC2 with biotinylated oligonucleosome substrates and 3H SAM, FlashPlate scintillation counting, IC50. The test is classed as biochemical. The note with it: rPRC2, biotinylated oligonucleosome substrates, 3H SAM; read-out: EZH2 IC50. An outline of the steps:
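rPRC2 (2 nM EZH2) pre-incubated 20 min with compound (80 to 0.16 uM, ten 2-fold steps), then 60 min reaction with 0.2 uM 3H SAM, 0.2 uM biotinylated oligonucleosomes, 3.6 uM H3K27me3 peptide in Tris pH 8.5. SAH/EDTA quench; 4-parameter IC50 fit.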

Test [2] concerns the target Y641N EZH2 (Homo sapiens, UniProt Q15910, Y641N). In words: Y641N EZH2 assay: performed as the EZH2 assay, using reconstituted H3K27Me2 oligonucleosomes as substrate. Type of test: biochemical. The procedure: Assays were carried out by mixing rPRC2 together with biotinylated oligonucleosome substrates in the presence of the radio-labeled enzyme co-factor, S-adenosyl-L-methionine (^3H SAM) (Perkin Elmer) and monitoring the enzymatically mediated transfer of tritiated methyl groups from ^3H SAM to histone lysine residues. The amount of resulting tritated methylhistone product was measured by first capturing the biotinylated oligonuclesomes in streptavidin (SAV) coated FlashPlates (Perkin Elmer), followed by a wash step to remove un-reacted ^3H SAM, and then counting on a TopCount NXT 384 well plate scintillation counter (Perkin Elmer). The final assay conditions for EZH2 were as follows: 50 mM Tris Buffer pH 8.5, 1 mM DTT, 69 uM Brij-35 detergent, 5.0 mM MgCl2, 0.1 mg/mL BSA, 0.2 uM ^3H SAM, 0.2 uM biotinylated oligonucleosomes, 3.6 uM H3K27me3 peptide and 2 nM EZH2.
Compound IC50 measurements were obtained as follows: Compounds were first dissolved in 100% DMSO as 10 mM stock solutions. […] A 12.5 uL volume of the HMT enzyme, H3K27me3 peptide and oligonucleosome substrate in assay buffer was added to each well of the assay plate using a Multidrop Combi (ThermoFisher). Compounds were pre-incubated with the enzyme for 20 min, followed by initiation of the methyltransferase reaction by addition of 12.5 uL of 3H SAM in assay buffer (final volume=25 uL). The final concentrations of compounds ranged from a top default concentration of 80 uM down to 0.16 uM in ten 2-fold dilution steps. Reactions were carried out for 60 minutes and quenched with 20 uL per well of 1.96 mM SAH, 50 mM Tris PH 8.5, 200 mM EDTA. Stopped reactions were transferred to SAV coated Flashplates (Perkin Elmer), incubated for 120 min, washed with a plate washer, and then read on the TopCount NXT (1.0 min/well) to measure the amount of methylhistone product formed during the reaction. The amount of methylhistone product was compared with the amount of product formed in the 0% and 100% inhibition control wells allowing the calculation of % Inhibition in the presence of the individual compounds at various concentrations. IC50's were computed using a 4 parameter fit non-linear curve fitting software package (XLFIT, part of the database package, ActivityBase (IDBS)) where the four parameters were IC50, Hill slope, pre-transitional baseline (0% INH), and post-transitional baseline (100% INH); with the latter two parameters being fixed to zero and 100%, respectively, by default.

Y641N EZH2, sequence (Q15910 whole entry Y641N): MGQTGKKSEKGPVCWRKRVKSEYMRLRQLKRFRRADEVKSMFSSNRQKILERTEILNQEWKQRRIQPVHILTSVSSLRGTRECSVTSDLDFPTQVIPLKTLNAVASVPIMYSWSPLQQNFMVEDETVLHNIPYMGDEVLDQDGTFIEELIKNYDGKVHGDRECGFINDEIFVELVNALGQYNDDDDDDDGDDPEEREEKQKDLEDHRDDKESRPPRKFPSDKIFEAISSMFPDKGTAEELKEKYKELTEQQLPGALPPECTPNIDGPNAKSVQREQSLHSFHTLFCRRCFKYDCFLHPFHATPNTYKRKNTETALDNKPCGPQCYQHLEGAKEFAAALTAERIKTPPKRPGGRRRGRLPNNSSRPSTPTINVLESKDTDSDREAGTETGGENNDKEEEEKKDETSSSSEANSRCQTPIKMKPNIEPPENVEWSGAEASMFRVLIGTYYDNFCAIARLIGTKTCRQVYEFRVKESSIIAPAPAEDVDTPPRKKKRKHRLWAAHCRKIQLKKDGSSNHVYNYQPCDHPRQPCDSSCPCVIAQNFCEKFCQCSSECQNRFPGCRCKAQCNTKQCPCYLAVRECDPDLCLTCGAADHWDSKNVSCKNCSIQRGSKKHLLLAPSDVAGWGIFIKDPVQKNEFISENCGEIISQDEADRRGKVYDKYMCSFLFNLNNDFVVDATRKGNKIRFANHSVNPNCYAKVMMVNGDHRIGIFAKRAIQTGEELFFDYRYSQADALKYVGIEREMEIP
Y641N EZH2, sequence (O75530 whole entry partner): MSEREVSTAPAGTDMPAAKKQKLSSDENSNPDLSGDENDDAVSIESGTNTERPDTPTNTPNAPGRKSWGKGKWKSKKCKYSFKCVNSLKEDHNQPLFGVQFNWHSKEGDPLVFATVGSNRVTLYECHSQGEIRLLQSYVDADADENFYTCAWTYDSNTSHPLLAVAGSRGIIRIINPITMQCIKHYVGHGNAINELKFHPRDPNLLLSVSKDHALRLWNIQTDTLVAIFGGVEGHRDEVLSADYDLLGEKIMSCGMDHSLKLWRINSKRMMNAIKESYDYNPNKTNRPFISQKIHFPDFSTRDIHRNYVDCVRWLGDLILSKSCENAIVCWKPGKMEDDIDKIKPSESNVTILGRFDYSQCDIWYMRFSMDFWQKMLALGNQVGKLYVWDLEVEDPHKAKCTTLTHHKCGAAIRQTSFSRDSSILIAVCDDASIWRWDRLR
Y641N EZH2, sequence (Q15022 whole entry partner): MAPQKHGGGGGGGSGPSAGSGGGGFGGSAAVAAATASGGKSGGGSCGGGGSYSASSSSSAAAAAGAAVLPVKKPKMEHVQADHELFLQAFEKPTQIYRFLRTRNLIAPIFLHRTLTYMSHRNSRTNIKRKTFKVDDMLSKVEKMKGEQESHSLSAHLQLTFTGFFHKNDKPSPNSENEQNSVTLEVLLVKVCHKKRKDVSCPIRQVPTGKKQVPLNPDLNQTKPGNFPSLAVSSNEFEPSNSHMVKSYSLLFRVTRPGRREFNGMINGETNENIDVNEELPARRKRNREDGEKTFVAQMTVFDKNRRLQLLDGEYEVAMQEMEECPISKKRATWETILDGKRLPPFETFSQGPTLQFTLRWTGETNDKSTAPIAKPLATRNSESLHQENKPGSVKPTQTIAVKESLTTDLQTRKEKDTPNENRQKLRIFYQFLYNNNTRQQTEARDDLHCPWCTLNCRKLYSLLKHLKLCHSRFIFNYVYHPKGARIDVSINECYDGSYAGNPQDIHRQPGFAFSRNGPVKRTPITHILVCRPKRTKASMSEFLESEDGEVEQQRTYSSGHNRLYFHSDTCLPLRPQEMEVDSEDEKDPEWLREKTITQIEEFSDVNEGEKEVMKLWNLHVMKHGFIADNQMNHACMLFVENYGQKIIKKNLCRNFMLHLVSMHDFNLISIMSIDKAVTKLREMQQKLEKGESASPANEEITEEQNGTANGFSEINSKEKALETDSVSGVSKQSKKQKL
EZH2, sequence (Q15910 whole entry): as the sequence (Q15910 whole entry Y641N) above, with N641Y counted along it
EZH2, sequence (O75530 whole entry partner): as the sequence (O75530 whole entry partner) above
EZH2, sequence (Q15022 whole entry partner): as the sequence (Q15022 whole entry partner) above

In general, IC50 refers to the concentration at which inhibition is half-maximal. For the compound `CC1(C)CC(NC(=O)c2ccc(Oc3cccc(-c4cccnc4)c3C#N)c(Br)c2)CC(C)(C)N1` [Compound I-364], the half-inhibitory concentration (IC50) in test [1] and in test [2] was less than 5 µM throughout.
In the case of `CC1(C)CC(NC(=O)c2ccc(C#Cc3ccccc3)cc2)CC(C)(C)N1` [Compound I-173], the IC50 in test [1] and in test [2] was 5 to 20 µM in each case.
With `CC1(C)CC(/C=C/c2ccc(Oc3cccc(-c4ccncn4)c3C#N)c(Cl)c2)CC(C)(C)N1` [Compound I-592, (E)-2-(2-chloro-4-(2-(2,2,6,6-tetramethylpiperidin-4-yl)vinyl)phenoxy)-6-(pyrimidin-4-yl)benzonitrile], the values for the IC50 in test [1] and in test [2] were less than 5 µM and 5 to 20 µM, respectively.
The matching figures for `CC1(C)CC(NC(=O)c2ccc(Oc3cccc(-c4ccnnc4)c3C#N)c(Cl)c2)CC(C)(C)C1O` (centres unmarked) [Compound I-548]: less than 5 µM and 20 to 80 µM.
Taken in the same sequence, the figures for `CC1(C)CC(NC(=O)c2ccc(Oc3cccc4c3CCNC4)c(Cl)c2)CC(C)(C)N1` [Compound I-423] were less than 5 µM and 20 to 80 µM.
Taken in the same sequence, the figures for `CC1(C)CC(NC(=O)c2ccc(Oc3cccc(-c4ccnc(O)c4)c3C#N)c(Cl)c2)CC(C)(C)N1` [Compound I-583] were less than 5 µM and less than 5 µM.
Take `CC1(C)CC(NC(=O)c2ccc(C(=O)c3ccccc3)cc2)CC(C)(C)N1` [Compound I-431]: the results for the IC50 in test [1] and in test [2] were 20 to 80 µM and greater than 80 µM, respectively.
Take `Cc1cc(C(=O)NC2CC(C)(C)NC(C)(C)C2)ccc1Oc1cccc(-c2cn[nH]c2)c1C#N` [Compound I-262]: the IC50 in test [1] and in test [2] was less than 5 µM in each case.
Consider `CN(C)C(=O)Cn1cc(-c2cccc(Oc3ccc(C(=O)NC4CC(C)(C)NC(C)(C)C4)cc3Cl)c2C#N)cn1` [Compound I-395], for which the IC50 was less than 5 µM in test [1] and 5 to 20 µM in test [2].
On to `CCc1cccc(Oc2ccc(C(=O)NC3CC(C)(C)NC(C)(C)C3)cc2Cl)c1-c1cccnc1` [Compound I-343], for which the IC50 in test [1] and in test [2] was 20 to 80 µM in each case.
Take `CC1(C)CC(NC(=O)c2ccc(Oc3cccc(-c4ccncn4)c3C#N)c(Cl)c2)CC(C)(C)N1` [Compound I-480, 3-Chloro-4-(2-cyano-3-(pyrimidin-4-yl)phenoxy)-N-(2,2,6,6-tetramethylpiperidin-4-yl)benzamide]: the IC50 in test [1] and in test [2] was less than 5 µM in each case.
In the case of `CCc1cccc(Oc2ccc(C(=O)NC3CC(C)(C)NC(C)(C)C3)cc2Cl)c1-c1ccncc1` [Compound I-342], the IC50 in test [1] was 20 to 80 µM; in test [2], greater than 80 µM.
`CC1(C)CC(NC(=O)c2ccc(Oc3cccc(I)c3C#N)c(Cl)c2)CC(C)(C)N1` [Compound I-257]: the IC50 in test [1] and in test [2] was less than 5 µM in each case.
On to `CC1(C)CC(NC(=O)c2ccc(Oc3cccc(F)c3C#N)c(Cl)c2)CC(C)(C)N1` [Compound I-258], for which the IC50 in test [1] and in test [2] was less than 5 µM each time.
In the case of `CC1(C)CC(NC(=O)c2ccc(Cn3cnc4ccccc43)cc2)CC(C)(C)N1` [Compound I-405], the half-inhibitory concentration (IC50) in test [1] was 20 to 80 µM; in test [2], greater than 80 µM.
Consider `Cc1cc(-c2cccc(Oc3ccc(C(=O)NC4CC(C)(C)NC(C)(C)C4)cc3Cl)c2C#N)cc(C)n1` [Compound I-585], for which the IC50 in test [1] was less than 5 µM; in test [2] it was 5 to 20 µM.
The matching figures for `Cc1cnccc1-c1cccc(Oc2ccc(C(=O)NC3CC(C)(C)NC(C)(C)C3)cc2Cl)c1C#N` [Compound I-572]: less than 5 µM and less than 5 µM.
Regarding `CC(=O)Nc1ccc(-c2cccc(OCc3ccc(C(=O)NC4CC(C)(C)NC(C)(C)C4)cc3)c2)cc1` [Compound I-167], the IC50 in test [1] and in test [2] was 20 to 80 µM in each case.
On to `CC(Oc1cccc(Oc2ccc(C(=O)NC3CC(C)(C)NC(C)(C)C3)cc2Cl)c1C#N)C(N)=O` (centres unmarked) [Compound I-326], for which the concentration for half-maximal inhibition (IC50) was 5 to 20 µM in test [1] and greater than 80 µM in test [2].
